Structures can show the parent of a compound that is named as a salt.
Molecular target: T1, proton, potassium-adenosine triphosphatase (H+,K+-ATPase) (Sus scrofa, UniProt P19156)
T1 construct: a gastric mucous membrane microsomal fraction was prepared from the stomach of swine
Experiment: Proton potassium-adenosine triphosphatase (H+,K+-ATPase) inhibitory activity test
Format: biochemical
Conditions: swine gastric mucous membrane microsomal fraction, pH 6.5, 37° C., 10 mmol/L potassium chloride
Procedure: Proton Potassium-Adenosine Triphosphatase (H^+,K^+-ATPase) Inhibitory Activity Test
According to the method [Biochim. Biophys. Acta, 728, 31 (1983)] of Wallmark et al., a gastric mucous membrane microsomal fraction was prepared from the stomach of swine. First, the stomach was removed, washed with tap water, and immersed in 3 mol/L brine, and the surface of the mucous membrane was wiped with a paper towel. The gastric mucous membrane was detached, chopped, and homogenized in a 0.25 mol/L saccharose solution (pH 6.8) containing 1 mmol/L EDTA and 10 mmol/L tris-hydrochloric acid using polytron (Kinematica). The obtained homogenate was centrifuged at 20,000×g for 30 min and the supernatant was centrifuged at 100,000×g for 90 min. The precipitate was suspended in 0.25 mol/L saccharose solution, the suspension was superimposed on a 0.25 mol/L saccharose solution containing 7.5% Ficoll, and centrifuged at 100,000×g for 5 hr. The fraction containing the interface between the both layers was recovered, and centrifugally washed with 0.25 mol/L saccharose solution.
The obtained microsomal fraction was used as a proton, potassium-adenosine triphosphatase standard product.
To 40 μL of a 50 mmol/L HEPES-tris buffer (5 mmol/L magnesium chloride, 10 mmol/L potassium chloride, 10 μmol/L valinomycin, pH=6.5) containing 2.5 μg/mL (based on the protein concentration) of the enzyme standard product was added a test compound (5 μL) dissolved in a 10% aqueous dimethyl sulfoxide solution, and the mixture was incubated at 37° C. for 30 min. The enzyme reaction was started by adding 5 μL of a 2 mmol/L adenosine triphosphate tris salt solution (50 mmol/L HEPES-tris buffer (5 mmol/L magnesium chloride, pH 6.5)). The enzyme reaction was carried out at 37° C. for 20 min, and 15 μL of a malachite green solution (0.12% malachite green solution in sulfuric acid (2.5 mol/L), 7.5% ammonium molybdate and 11% Tween 20 were mixed at a ratio of 100:25:2) was added to quench the reaction. After allowing to stand at room temperature for 15 min, the resulting reaction product of inorganic phosphorus with malachite green was colorimetrically determined at a wavelength of 610 nm. In addition, the amount of the inorganic phosphoric acid in the reaction solution free of potassium chloride was measured in the same manner, which was subtracted from the inorganic phosphoric acid amount in the presence of potassium chloride to determine the proton, potassium-adenosine triphosphatase activity. The inhibitory rate (%) was determined from the activity value of the control and the activity values of various concentrations of the test compound, and the 50% inhibitory concentration (IC50) of the proton, potassium-adenosine triphosphatase was determined.

T1 sequence (P19156 2-1034): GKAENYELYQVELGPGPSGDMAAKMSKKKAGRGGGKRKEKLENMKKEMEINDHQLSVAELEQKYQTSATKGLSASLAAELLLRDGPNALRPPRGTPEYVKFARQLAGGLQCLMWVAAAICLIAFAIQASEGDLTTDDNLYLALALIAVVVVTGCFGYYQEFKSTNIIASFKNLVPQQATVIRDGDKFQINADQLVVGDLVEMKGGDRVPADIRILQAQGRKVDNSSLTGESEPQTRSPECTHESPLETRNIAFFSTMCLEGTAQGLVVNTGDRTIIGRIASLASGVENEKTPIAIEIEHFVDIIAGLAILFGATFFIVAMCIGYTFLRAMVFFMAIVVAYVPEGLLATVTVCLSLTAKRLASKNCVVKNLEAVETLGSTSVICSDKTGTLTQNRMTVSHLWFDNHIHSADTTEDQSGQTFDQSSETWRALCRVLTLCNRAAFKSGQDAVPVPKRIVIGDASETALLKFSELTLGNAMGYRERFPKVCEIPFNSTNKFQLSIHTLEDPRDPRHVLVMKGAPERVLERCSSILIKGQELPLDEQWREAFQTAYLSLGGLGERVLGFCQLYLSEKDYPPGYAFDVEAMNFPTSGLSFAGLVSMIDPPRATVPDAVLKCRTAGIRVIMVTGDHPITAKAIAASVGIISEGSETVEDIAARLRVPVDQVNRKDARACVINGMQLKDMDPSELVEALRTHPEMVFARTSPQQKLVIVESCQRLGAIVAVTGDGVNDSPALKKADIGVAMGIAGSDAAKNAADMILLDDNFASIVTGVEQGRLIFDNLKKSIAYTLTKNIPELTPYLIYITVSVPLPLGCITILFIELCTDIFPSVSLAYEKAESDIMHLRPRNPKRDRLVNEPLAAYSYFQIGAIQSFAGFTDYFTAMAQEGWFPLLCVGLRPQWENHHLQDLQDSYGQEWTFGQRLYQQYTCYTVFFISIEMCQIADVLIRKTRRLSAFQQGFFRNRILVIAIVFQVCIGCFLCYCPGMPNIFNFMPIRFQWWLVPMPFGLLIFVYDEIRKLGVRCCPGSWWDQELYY
T1 sequence (P18434 whole entry partner): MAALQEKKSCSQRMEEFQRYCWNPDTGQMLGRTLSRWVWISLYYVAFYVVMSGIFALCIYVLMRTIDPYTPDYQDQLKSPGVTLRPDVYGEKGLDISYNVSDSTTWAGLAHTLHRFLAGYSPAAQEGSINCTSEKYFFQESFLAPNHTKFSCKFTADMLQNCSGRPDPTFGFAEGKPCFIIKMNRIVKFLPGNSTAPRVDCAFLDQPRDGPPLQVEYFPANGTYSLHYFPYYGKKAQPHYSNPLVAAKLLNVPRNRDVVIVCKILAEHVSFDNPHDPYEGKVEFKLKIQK

Row | IC50 [µM] | SMILES
1 | 0.086 | CNCc1cc(S(=O)(=O)c2cccnc2)n(-c2ccccc2Cl)n1 [Example 87, 1-[1-(2-chlorophenyl)-5-(pyridin-3-ylsulfonyl)-1H-pyrazol-3-yl]-N-methylmethanamine]
2 | 0.25 | CNCc1cc(S(=O)(=O)c2cccnc2)c(-c2cccnc2F)s1 [Example 65, 1-[5-(2-fluoropyridin-3-yl)-4-(pyridin-3-ylsulfonyl)thiophen-2-yl]-N-methylmethanamine]
3 | 0.032 | CNCc1cc(-c2cccnc2F)c(S(=O)(=O)c2ccccc2)s1 [Example 2, 1-[4-(2-fluoropyridin-3-yl)-5-(phenylsulfonyl)-2-thienyl]-N-methylmethanamine hydrochloride]
4 | 0.19 | CNCc1cc(S(=O)(=O)c2ccccc2)n(-c2cccnc2F)n1 [Example 79, 1-[1-(2-fluoropyridin-3-yl)-5-(phenylsulfonyl)-1H-pyrazol-3-yl]-N-methylmethanamine]
5 | 0.088 | CNCc1cc(-c2ccccc2F)c(S(=O)(=O)c2ccccc2)s1 [Example 19, 1-[4-(2-fluorophenyl)-5-(phenylsulfonyl)thiophen-2-yl]-N-methylmethanamine hydrochloride]
6 | 0.11 | CNCc1cc(S(=O)(=O)c2ccc(C)nc2)n(-c2ccccc2Cl)n1 [Example 89, 1-{1-(2-chlorophenyl)-5-[(6-methylpyridin-3-yl)sulfonyl]-1H-pyrazol-3-yl}-N-methylmethanamine]
7 | 0.064 | CNCc1cn(S(=O)(=O)c2cccs2)c(-c2ccccc2F)n1 [Example 18, 1-[2-(2-fluorophenyl)-1-(2-thienylsulfonyl)-1H-imidazol-4-yl]-N-methylmethanamine fumarate]
8 | 0.084 | CNCc1cc(S(=O)(=O)c2cccc(C#N)c2)n(-c2ccccc2Cl)n1 [Example 86, 3-({1-(2-chlorophenyl)-3-[(methylamino)methyl]-1H-pyrazol-5-yl}sulfonyl)benzonitrile hydrochloride]
9 | 0.18 | CNCc1cc(S(=O)(=O)c2cccnc2)n(-c2cccc(F)c2Cl)n1 [Example 113, 1-[1-(2-chloro-3-fluorophenyl)-5-(pyridin-3-ylsulfonyl)-1H-pyrazol-3-yl]-N-methylmethanamine fumarate]
10 | 0.24 | CNCc1cc(-c2cccnc2F)c(S(=O)(=O)c2cccnc2)s1 [Example 48, 1-[4-(2-fluoropyridin-3-yl)-5-(pyridin-3-ylsulfonyl)thiophen-2-yl]-N-methylmethanamine]
11 | 0.22 | CNCc1cc(S(=O)(=O)c2cccnc2)n(-c2cccc(F)c2F)n1 [Example 98, 1-[1-(2,3-difluorophenyl)-5-(pyridin-3-ylsulfonyl)-1H-pyrazol-3-yl]-N-methylmethanamine]
12 | 0.046 | CNCc1nc(-c2ccccc2F)c(S(=O)(=O)c2cccc(OC)c2)s1 [Example 13, 1-{4-(2-fluorophenyl)-5-[(3-methoxyphenyl)sulfonyl]-1,3-thiazol-2-yl}-N-methylmethanamine hydrochloride]
13 | 0.076 | CNCc1cc(S(=O)(=O)c2ccc(C)nc2)n(-c2cccc(F)c2F)n1 [Example 99, 1-{1-(2,3-difluorophenyl)-5-[(6-methylpyridin-3-yl)sulfonyl]-1H-pyrazol-3-yl}-N-methylmethanamine]
14 | 0.31 | CNCc1nc(-c2cccnc2F)c(S(=O)(=O)c2cccnc2)s1 [Example 60, 1-[4-(2-fluoropyridin-3-yl)-5-(pyridin-3-ylsulfonyl)-1,3-thiazol-2-yl]-N-methylmethanamine]
15 | 0.064 | CNCc1cc(-c2ccccc2F)c(S(=O)(=O)c2cccc(OC)c2)s1 [Example 4, 1-{4-(2-fluorophenyl)-5-[(3-methoxyphenyl)sulfonyl]-2-thienyl}-N-methylmethanamine fumarate]
16 | 0.24 | CNCc1nc(-c2ccccc2F)c(S(=O)(=O)c2cccnc2)s1 [Example 56, 1-[4-(2-fluorophenyl)-5-(pyridin-3-ylsulfonyl)-1,3-thiazol-2-yl]-N-methylmethanamine fumarate]
17 | 0.028 | CNCc1cn(S(=O)(=O)c2ccccc2)c(-c2ccccc2F)n1 [Example 67, 1-[2-(2-fluorophenyl)-1-(phenylsulfonyl)-1H-imidazol-4-yl]-N-methylmethanamine fumarate]
18 | 0.13 | CNCc1cc(S(=O)(=O)c2cccnc2)n(-c2ccccc2F)n1 [Example 81, 1-[1-(2-fluorophenyl)-5-(pyridin-3-ylsulfonyl)-1H-pyrazol-3-yl]-N-methylmethanamine]
